Measured values as given in DBAASP.
In brackets after ≈: the same amount, converted by molar mass.

Experiments:
Assay in all cases: ≥ marks a high value that may be exact or a test limit, other limits are often not marked, values filed in µg/mL are converted to µM
[1] = tested on: Staphylococcus aureus ATCC 25923
[2] = tested on: Escherichia coli ATCC 25922
[3] = tested on: Pseudomonas aeruginosa ATCC 27853
[4] = tested on: Staphylococcus aureus ATCC 29213

Row | Compound | MIC [1] [µM] | MIC [2] [µM] | MIC [3] [µM] | MIC [4] [µM]
1 | CSCC[C@H](NC(=O)[C@H](CCCN=C(N)N)NC(=O)[C@H](Cc1c[nH]c2ccccc12)NC(=O)[C@H](C)NC(=O)[C@H](Cc1c[nH]c2ccccc12)NC(=O)[C@H](CCCN=C(N)N)NC(=O)[C@H](CCCN=C(N)N)NC(=O)[C@H](C)NC(=O)[C@H](CCCCN)NC(=O)[C@@H](N)Cc1ccccc1)C(=O)N[C@@H](CCCCN)C(=O)O [FKARRWAWRMK] | 32.6 (≈ 50 µg/mL) | 32.6 (≈ 50 µg/mL) | 130 (≈ 200 µg/mL) | –
2 | CC[C@H](C)[C@H](NC(=O)[C@H](CCCN=C(N)N)NC(=O)[C@H](CCC(N)=O)NC(=O)[C@@H](NC(=O)[C@@H](NC(=O)[C@H](CCCN=C(N)N)NC(=O)[C@H](CCCCN)NC(=O)[C@@H](N)Cc1ccccc1)[C@@H](C)CC)C(C)C)C(=O)N[C@@H](CCCCN)C(=O)N[C@@H](CC(=O)O)C(=O)N[C@@H](Cc1ccccc1)C(=O)N[C@@H](C)C(=O)N[C@@H](CCCN=C(N)N)C(=O)O [FKRIVQRIKDFAR] | – | 10 (≈ 16.8 µg/mL) | – | > 40
3 | CC[C@H](C)[C@H](NC(=O)CN)C(=O)NCC(=O)N[C@@H](CCCCN)C(=O)N[C@@H](Cc1ccccc1)C(=O)N[C@@H](CC(C)C)C(=O)N[C@@H](Cc1cnc[nH]1)C(=O)N[C@@H](CCCCN)C(=O)N[C@H](C(=O)N[C@@H](CCCCN)C(=O)N[C@@H](CO)C(=O)N[C@@H](Cc1ccccc1)C(=O)NCC(=O)N[C@@H](CCCCN)C(=O)N[C@@H](CO)C(=O)N[C@@H](Cc1c[nH]c2ccccc12)C(=O)N[C@H](C(=O)NCC(=O)N[C@@H](CCC(=O)O)C(=O)N[C@H](C(=O)N[C@@H](CCSC)C(=O)N[C@@H](CC(N)=O)C(=O)N[C@@H](CO)C(N)=O)[C@@H](C)CC)[C@@H](C)CC)C(C)C [GIGKFLHKVKSFGKSWIGEIMNS] | – | 19 (≈ 48.7 µg/mL) | 19 (≈ 48.7 µg/mL) | 76 (≈ 195 µg/mL)
4 | CC[C@H](C)[C@H](NC(=O)[C@H](CCCN=C(N)N)NC(=O)[C@H](CCC(N)=O)NC(=O)[C@@H](NC(=O)[C@H](Cc1cnc[nH]1)NC(=O)[C@H](CCCN=C(N)N)NC(=O)[C@H](CCCCN)NC(=O)[C@@H](N)Cc1ccccc1)C(C)C)C(=O)N[C@@H](CCCCN)C(=O)N[C@@H](CC(=O)O)C(=O)N[C@@H](Cc1ccccc1)C(=O)N[C@@H](CC(C)C)C(=O)N[C@@H](CCCN=C(N)N)C(=O)O [FKRHVQRIKDFLR] | – | 10 (≈ 17.4 µg/mL) | – | > 40
5 | CC(C)[C@H](NC(=O)[C@H](CC(=O)O)NC(=O)[C@H](CO)NC(=O)[C@H](CCCCN)NC(=O)CNC(=O)[C@H](CO)NC(=O)[C@H](CO)NC(=O)[C@H](Cc1cnc[nH]1)NC(=O)[C@@H](N)CCC(N)=O)C(=O)N[C@@H](CCCN=C(N)N)C(=O)N[C@@H](CCCN=C(N)N)C(=O)N[C@@H](Cc1c[nH]c2ccccc12)C(N)=O [QHSSGKSDVRRW] | > 100 | > 100 | > 100 | –
6 | CC(C)C[C@H](NC(=O)[C@H](CC(C)C)NC(=O)[C@H](CCCN=C(N)N)NC(=O)[C@H](CC(C)C)NC(=O)[C@H](CC(C)C)NC(=O)[C@H](CCCN=C(N)N)NC(=O)[C@H](CCCN=C(N)N)NC(=O)[C@H](CC(C)C)NC(=O)[C@H](CC(C)C)NC(=O)[C@H](CCCN=C(N)N)NC(=O)[C@H](CC(C)C)NC(=O)[C@H](CC(C)C)NC(=O)[C@H](CCCN=C(N)N)NC(=O)[C@H](CC(C)C)NC(=O)[C@H](CCCN=C(N)N)NC(=O)[C@H](CC(C)C)NC(=O)[C@H](CCCN=C(N)N)NC(=O)[C@H](CCCN=C(N)N)NC(=O)[C@@H](N)CC(C)C)C(=O)O [LRRLRLRLLRLLRRLLRLL] | – | – | > 128 | –
7 | CC[C@H](C)[C@H](NC(=O)[C@@H](N)Cc1ccc(O)cc1)C(=O)N[C@@H](CCCCN)C(=O)N[C@@H](CC(C)C)C(=O)N[C@@H](CC(C)C)C(=O)N[C@@H](CCCCN)C(=O)N[C@@H](CCC(=O)O)C(N)=O [YIKLLKE] | – | > 100 | > 100 | –
8 | CC(C)C[C@H](NC(=O)[C@H](CCCCN)NC(=O)[C@H](CC(C)C)NC(=O)[C@H](CC(C)C)NC(=O)[C@H](CCCCN)NC(=O)[C@H](CCCCN)NC(=O)[C@H](CC(C)C)NC(=O)[C@H](CC(C)C)NC(=O)[C@H](CCCCN)NC(=O)[C@H](CC(C)C)NC(=O)[C@H](CC(C)C)NC(=O)[C@H](CCCCN)NC(=O)[C@H](CCCCN)NC(=O)[C@H](C)N)C(=O)N[C@@H](C)C(=O)NCC(=O)O [AKKLLKLLKKLLKLAG] | – | 5 (≈ 8.89 µg/mL) | – | 10 (≈ 17.8 µg/mL)
9 | CC[C@H](C)[C@H](NC(=O)[C@H](Cc1ccc(O)cc1)NC(=O)[C@H](CCC(N)=O)NC(=O)[C@H](CC(C)C)NC(=O)[C@H](C)NC(=O)[C@H](CCCCN)NC(=O)[C@H](CCCCN)NC(=O)[C@H](CCSC)NC(=O)[C@H](CCCCN)NC(=O)[C@@H](N)CCCCN)C(=O)N[C@@H](CCCCN)C(=O)N[C@@H](CC(C)C)C(N)=O [KKMKKALQYIKL] | – | > 100 | > 100 | –
10 | NC(=O)[C@H](CCCN=C(N)N)NC(=O)[C@H](Cc1c[nH]c2ccccc12)NC(=O)[C@H](Cc1c[nH]c2ccccc12)NC(=O)[C@H](CCCN=C(N)N)NC(=O)[C@H](Cc1c[nH]c2ccccc12)NC(=O)[C@H](Cc1c[nH]c2ccccc12)NC(=O)[C@@H](N)CCCN=C(N)N [RWWRWWR] | 2.03 (≈ 2.5 µg/mL) | 8.12 (≈ 9.99 µg/mL) | 6.09 (≈ 7.49 µg/mL) | –
11 | CC[C@H](C)[C@H](NC(=O)CNC(=O)[C@H](CCCCN)NC(=O)[C@H](CCCCN)NC(=O)[C@H](CCCCN)NC(=O)[C@@H](N)CCCCN)C(=O)NCC(=O)N[C@@H](CCCCN)C(=O)N[C@@H](Cc1ccccc1)C(=O)N[C@@H](CC(C)C)C(=O)N[C@@H](Cc1cnc[nH]1)C(=O)N[C@@H](CO)C(=O)N[C@@H](C)C(=O)N[C@@H](CCCCN)C(=O)N[C@@H](CCCCN)C(=O)N[C@@H](Cc1ccccc1)C(=O)NCC(=O)N[C@@H](CCCCN)C(=O)N[C@@H](C)C(=O)N[C@@H](Cc1ccccc1)C(=O)N[C@H](C(=O)NCC(=O)N[C@@H](CCC(=O)O)C(=O)N[C@H](C(=O)N[C@@H](CCSC)C(=O)N[C@@H](CC(N)=O)C(=O)N[C@@H](CO)C(=O)O)[C@@H](C)CC)C(C)C [KKKKGIGKFLHSAKKFGKAFVGEIMNS] | – | – | – | > 33.6
12 | CC(=O)N[C@@H](CCCCN)C(=O)N[C@@H](CC(C)C)C(=O)N[C@@H](CC(C)C)C(=O)N[C@@H](CCCCN)C(=O)N[C@@H](CC(C)C)C(=O)N[C@@H](CC(C)C)C(=O)N[C@@H](CCCCN)C(=O)N1CCC[C@H]1C(=O)N[C@@H](CC(C)C)C(=O)N[C@@H](CC(C)C)C(=O)N[C@@H](CCCCN)C(=O)N[C@@H](CC(C)C)C(=O)N[C@@H](CC(C)C)C(=O)N[C@@H](CCCCN)C(N)=O [KLLKLLKPLLKLLK] | – | 10 (≈ 17 µg/mL) | – | 3.54 (≈ 6.02 µg/mL)
13 | CC[C@H](C)[C@H](NC(=O)CNC(=O)[C@H](CC(C)C)NC(=O)[C@@H](NC(=O)[C@@H]1CCCN1C(=O)[C@H](CC(N)=O)NC(=O)[C@H](CC(C)C)NC(=O)[C@H](CC(C)C)NC(=O)CNC(=O)[C@H](CC(N)=O)NC(=O)[C@H](CC(C)C)NC(=O)[C@H](CC(C)C)NC(=O)[C@@H](N)CC(=O)O)C(C)C)C(=O)N[C@@H](C)C(=O)N[C@@H](CC(N)=O)C(=O)NCC(=O)N[C@@H](CC(C)C)C(=O)N[C@H](C(=O)NCC(=O)NCC(=O)N[C@@H](CC(C)C)C(=O)N[C@H](C(=O)N[C@@H](CCCCN)C(=O)N[C@@H](CCCCN)C(N)=O)C(C)C)[C@@H](C)O [DLLNGLLNPVLGIANGLTGGLVKK] | – | > 293 | – | > 293
